Reference: US20260070945A1, “MACROCYCLIC IMMUNOMODULATORS” (Bristol-Myers Squibb Company, priority 2022, published 2026)
*1 amine or outer side, *2 acyl side, *3 side chain or, on linkers, in order; H or OH if unused. Where a SMILES comes first, the peptide text is derived from it. Bridges are numbered along the chain shown (N, C = ends). [ ]: non-standard residue; d: D form. The star is where a group is joined. ξ: configuration not given here. Phe(4-COOH) = N[C@@H](Cc1ccc(C(=O)O)cc1)C(=O)O; Bip = N[C@@H](Cc1ccc(-c2ccccc2)cc1)C(=O)O; Phe(3-Me) = Cc1cccc(C[C@H](N)C(=O)O)c1; γGlu = O=C(O)[C@H](CCC(=O)[*:2])N[*:1]; hArg = N=C(N)NCCCC[C@H](N)C(=O)O; 4Pal = N[C@@H](Cc1ccncc1)C(=O)O; Cha = N[C@@H](CC1CCCCC1)C(=O)O; Thr(3ξ) = CC(O)[C@H](N)C(=O)O; NMeNle = CCCC[C@H](NC)C(=O)O; 12Ado = NCCCCCCCCCCCC(=O)O; dDab = NCC[C@@H](N)C(=O)O; β3hS = N[C@@H](CO)CC(=O)O; Carboxymethyl = O=C(O)C*; NMeA = CN[C@@H](C)C(=O)O; Orn = NCCC[C@H](N)C(=O)O; Aun = NCCCCCCCCCCC(=O)O; Dab = NCC[C@H](N)C(=O)O; AEEA = NCCOCCOCC(=O)O

The compounds below were run against T1, PD-1/PD-L1 interaction (PE-labeled human PD-L1-Ig binding to Jurkat cell line over-expressing human PD-1) (Homo sapiens, UniProt Q15116) (assay: Jurkat-PD-1 Cell Binding High-Content Screening Assay (CBA)). Conditions: Jurkat-hPD-1 cells, PE-labeled PD-L1-Ig 20 nM final; read-out: Jurkat HPD1 PDL1 IC50.
T1 construct: expressed in transfected cells; host or cells: Jurkat
T1 sequence (Q15116 25-288): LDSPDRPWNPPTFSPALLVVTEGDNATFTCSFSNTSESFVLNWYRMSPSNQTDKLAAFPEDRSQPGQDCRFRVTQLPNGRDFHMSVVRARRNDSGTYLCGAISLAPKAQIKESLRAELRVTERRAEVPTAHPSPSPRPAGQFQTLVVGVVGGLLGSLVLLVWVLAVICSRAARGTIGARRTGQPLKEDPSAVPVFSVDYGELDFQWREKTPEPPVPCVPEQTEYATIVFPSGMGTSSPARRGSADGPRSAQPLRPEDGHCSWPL
Method in brief: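 Binding of 20 nM (final) PE-tagged PD-L1-Ig to compound-pretreated Jurkat-hPD-1 cells was measured by high-content imaging after 1 h. Pretreatment ran 2 h at 37 °C in DMEM with 10% fetal calf serum.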

SMILES | IC50
CC(C)C[C@H]1NC(=O)[C@H](C)N(C)C(=O)[C@H](CCC(=O)O)NC(=O)[C@H](Cc2ccc(-c3ccccc3)cc2)NC(=O)[C@H](C(C)C)NC(=O)[C@H](Cc2c[nH]c3ccccc23)NC(=O)[C@H](CC(=O)O)NC(=O)[C@H](Cc2ccc(C(=O)O)cc2)NC(=O)[C@H](Cc2ccc(OCC(=O)O)cc2)NC(=O)CSC[C@@H](C(=O)N[C@@H](CCCCN)C(=O)NCCOCCOCC(=O)NCCCCCCCCCCC(=O)O)NC(=O)[C@H](C(C)O)NC(=O)[C@H](C(C)C)NC(=O)[C@H](CC2CCCCC2)NC(=O)[C@H](CCN)NC1=O (stereo partly drawn) [Example 2108] ({CH2CO}-Y(Carboxymethyl)[Phe(4-COOH)]DWV[Bip]E[NMeA][dL][Dab][Cha]V[Thr(3ξ)]CK[AEEA][Aun]-OH; thioether N-14) | 24.4 nM
CC(C)C[C@H]1NC(=O)[C@H](C)N(C)C(=O)[C@H](C(C)C)NC(=O)[C@H](Cc2ccc(-c3ccccc3)cc2)NC(=O)[C@H](C(C)C)NC(=O)[C@H](Cc2c[nH]c3ccccc23)NC(=O)[C@H](CC(=O)O)NC(=O)[C@H](Cc2ccc(C(=O)O)cc2)NC(=O)[C@H](Cc2ccc(OCC(=O)O)cc2)NC(=O)CSC[C@@H](C(=O)N[C@@H](CCCCN)C(=O)NCCOCCOCC(=O)NCCCCCCCCCCC(=O)O)NC(=O)[C@H](C(C)O)NC(=O)[C@H](C(C)C)NC(=O)[C@H](CC2CCCCC2)NC(=O)[C@H](CCN)NC1=O (stereo partly drawn) [Example 2109] ({CH2CO}-Y(Carboxymethyl)[Phe(4-COOH)]DWV[Bip]V[NMeA][dL][Dab][Cha]V[Thr(3ξ)]CK[AEEA][Aun]-OH; thioether N-14) | 10.8 nM
CC(C)C[C@H]1NC(=O)[C@H](C)N(C)C(=O)[C@H](C(C)C)NC(=O)[C@H](Cc2ccc(-c3ccccc3)cc2)NC(=O)[C@H](C(C)C)NC(=O)[C@H](Cc2c[nH]c3ccccc23)NC(=O)[C@H](CC(=O)O)NC(=O)[C@H](Cc2ccc(C(=O)O)cc2)NC(=O)[C@H](Cc2ccc(OCC(=O)O)cc2)NC(=O)CSC[C@@H](C(=O)N[C@@H](CCCN)C(=O)NCCOCCOCC(=O)NCCCCCCCCCCC(=O)O)NC(=O)[C@H](CO)NC(=O)[C@H](C(C)C)NC(=O)[C@H](CC2CCCCC2)NC(=O)[C@H](CCN)NC1=O [Example 2110] ({CH2CO}-Y(Carboxymethyl)[Phe(4-COOH)]DWV[Bip]V[NMeA][dL][Dab][Cha]VSC[Orn][AEEA][Aun]-OH; thioether N-14) | 17 nM
CC(C)C[C@H]1NC(=O)[C@H](C)N(C)C(=O)[C@H](C(C)C)NC(=O)[C@H](Cc2ccc(-c3ccccc3)cc2)NC(=O)[C@H](C(C)C)NC(=O)[C@H](Cc2c[nH]c3ccccc23)NC(=O)[C@H](CC(=O)O)NC(=O)[C@H](CCCCNC(=N)N)NC(=O)[C@H](Cc2ccc(OCC(=O)O)cc2)NC(=O)CSC[C@@H](C(=O)N[C@@H](CCCN)C(=O)NCCOCCOCC(=O)NCCCCCCCCCCC(=O)O)NC(=O)[C@H](C(C)O)NC(=O)[C@H](C(C)C)NC(=O)[C@H](CC2CCCCC2)NC(=O)[C@H](CCN)NC1=O (stereo partly drawn) [Example 2111] ({CH2CO}-Y(Carboxymethyl)[hArg]DWV[Bip]V[NMeA][dL][Dab][Cha]V[Thr(3ξ)]C[Orn][AEEA][Aun]-OH; thioether N-14) | 29.9 nM
CC(C)C[C@H]1NC(=O)[C@H](C)N(C)C(=O)[C@H](C(C)C)NC(=O)[C@H](Cc2ccc(-c3ccccc3)cc2)NC(=O)[C@H](C(C)C)NC(=O)[C@H](Cc2c[nH]c3ccccc23)NC(=O)[C@H](CC(=O)O)NC(=O)[C@H](Cc2ccc(C(=O)O)cc2)NC(=O)[C@H](Cc2ccc(OCC(=O)O)cc2)NC(=O)CSC[C@@H](C(=O)N[C@@H](CCCCN)C(=O)NCCOCCOCC(=O)NCCCCCCCCCCC(=O)O)NC(=O)[C@H](CO)NC(=O)[C@H](C(C)C)NC(=O)[C@H](CC2CCCCC2)NC(=O)[C@@H](CCN)NC1=O [Example 2112] ({CH2CO}-Y(Carboxymethyl)[Phe(4-COOH)]DWV[Bip]V[NMeA][dL][dDab][Cha]VSCK[AEEA][Aun]-OH; thioether N-14) | 38.5 nM
CCCC[C@H]1C(=O)N[C@H](CC(C)C)C(=O)N[C@@H](CCN)C(=O)N[C@@H](CC2CCCCC2)C(=O)N[C@@H](C(C)C)C(=O)N[C@@H](C(C)O)C(=O)N[C@H](C(=O)N[C@@H](CCCN)C(=O)NCCOCCOCC(=O)NCCCCCCCCCCC(=O)O)CSCC(=O)N[C@@H](Cc2ccncc2)C(=O)N[C@@H](Cc2ccc(OCC(=O)O)cc2)C(=O)N[C@@H](CC(=O)O)C(=O)N[C@@H](Cc2c[nH]c3ccccc23)C(=O)N[C@@H](C(C)C)C(=O)N[C@@H](Cc2ccc(-c3ccccc3)cc2)C(=O)N[C@@H](CC(C)C)C(=O)N1C (stereo partly drawn) [Example 2114] ({CH2CO}-[4Pal]Y(Carboxymethyl)DWV[Bip]L[NMeNle][dL][Dab][Cha]V[Thr(3ξ)]C[Orn][AEEA][Aun]-OH; thioether N-14) | 102 nM
CCCC[C@H]1C(=O)N[C@H](CC(C)C)C(=O)N[C@@H](CCN)C(=O)N[C@@H](CC2CCCCC2)C(=O)N[C@@H](C(C)C)C(=O)N[C@@H](C(C)O)C(=O)N[C@H](C(=O)N[C@@H](CCCCN)C(=O)NCCOCCOCC(=O)NCCCCCCCCCCC(=O)O)CSCC(=O)N[C@@H](Cc2ccncc2)C(=O)N[C@@H](Cc2ccc(OCC(=O)O)cc2)C(=O)N[C@@H](CC(=O)O)C(=O)N[C@@H](Cc2c[nH]c3ccccc23)C(=O)N[C@@H](C(C)C)C(=O)N[C@@H](Cc2ccc(-c3ccccc3)cc2)C(=O)N[C@@H](CC(C)C)C(=O)N1C (stereo partly drawn) [Example 2115] ({CH2CO}-[4Pal]Y(Carboxymethyl)DWV[Bip]L[NMeNle][dL][Dab][Cha]V[Thr(3ξ)]CK[AEEA][Aun]-OH; thioether N-14) | 269 nM
CC(C)C[C@H]1NC(=O)[C@H](C)N(C)C(=O)[C@H](C(C)C)NC(=O)[C@H](Cc2ccc(-c3ccccc3)cc2)NC(=O)[C@H](C(C)C)NC(=O)[C@H](Cc2c[nH]c3ccccc23)NC(=O)[C@H](CC(=O)O)NC(=O)[C@H](Cc2ccncc2)NC(=O)[C@H](Cc2ccc(OCC(=O)O)cc2)NC(=O)CSC[C@@H](C(=O)N[C@@H](CCCCN)C(=O)NCCCCCCCCCCC(=O)O)NC(=O)C[C@H](CO)NC(=O)[C@H](C(C)C)NC(=O)[C@H](CC2CCCCC2)NC(=O)[C@H](CCN)NC1=O [Example 2116] ({CH2CO}-Y(Carboxymethyl)[4Pal]DWV[Bip]V[NMeA][dL][Dab][Cha]V[β3hS]CK[Aun]-OH; thioether N-14) | 63.7 nM
CC(C)C[C@H]1NC(=O)[C@H](C)N(C)C(=O)[C@H](C(C)C)NC(=O)[C@H](Cc2ccc(-c3ccccc3)cc2)NC(=O)[C@H](C(C)C)NC(=O)[C@H](Cc2c[nH]c3ccccc23)NC(=O)[C@H](CC(=O)O)NC(=O)[C@H](Cc2ccncc2)NC(=O)[C@H](Cc2ccc(OCC(=O)O)cc2)NC(=O)CSC[C@@H](C(=O)N[C@@H](CCN)C(=O)NCCOCCOCC(=O)NCCCCCCCCCCCC(=O)O)NC(=O)[C@H](CO)NC(=O)[C@H](C(C)C)NC(=O)[C@H](CC2CCCCC2)NC(=O)[C@H](CCN)NC1=O [Example 2117] ({CH2CO}-Y(Carboxymethyl)[4Pal]DWV[Bip]V[NMeA][dL][Dab][Cha]VSC[Dab][AEEA][12Ado]-OH; thioether N-14) | 30.3 nM
CC(C)C[C@H]1NC(=O)[C@H](C)N(C)C(=O)[C@H](C(C)C)NC(=O)[C@H](Cc2ccc(-c3ccccc3)cc2)NC(=O)[C@H](C(C)C)NC(=O)[C@H](Cc2c[nH]c3ccccc23)NC(=O)[C@H](CC(=O)O)NC(=O)[C@H](Cc2ccc(OCC(=O)O)cc2)NC(=O)[C@H](Cc2ccncc2)NC(=O)CSC[C@@H](C(=O)N[C@@H](CCN)C(=O)NCCOCCOCC(=O)N[C@@H](CCC(=O)NCCOCCOCC(=O)N[C@@H](CCCCN)C(=O)NCCCCCCCCCCCC(=O)O)C(=O)O)NC(=O)[C@H](CO)NC(=O)[C@H](C(C)C)NC(=O)[C@H](CC2CCCCC2)NC(=O)[C@H](CCN)NC1=O [Example 2118] ({CH2CO}-[4Pal]Y(Carboxymethyl)DWV[Bip]V[NMeA][dL][Dab][Cha]VSC[Dab][AEEA][γGlu][AEEA]K[12Ado]-OH; thioether N-14) | 14.3 nM
CC(C)C[C@@H]1NC(=O)[C@H](Cc2c[nH]c3ccccc23)NC(=O)[C@H](CC(=O)O)NC(=O)[C@H](Cc2ccc(OCC(=O)O)cc2)NC(=O)[C@H](CCCCNC(=N)N)NC(=O)CSC[C@@H](C(=O)NCC(=O)N[C@@H](CCN)C(=O)NCCCCCCCCCCC(=O)O)NC(=O)[C@H](CO)NC(=O)[C@H](C(C)C)NC(=O)[C@H](CC2CCCCC2)NC(=O)[C@H](CCN)NC(=O)[C@@H](CC(C)C)NC(=O)[C@H](C)N(C)C(=O)[C@H](C(C)C)NC(=O)[C@H](Cc2ccc(-c3ccccc3)cc2)NC1=O [Example 2120] ({CH2CO}-[hArg]Y(Carboxymethyl)DWL[Bip]V[NMeA][dL][Dab][Cha]VSCG[Dab][Aun]-OH; thioether N-14) | 17.6 nM
CC(C)C[C@@H]1NC(=O)[C@H](Cc2c[nH]c3ccccc23)NC(=O)[C@H](CC(=O)O)NC(=O)[C@H](Cc2ccc(OCC(=O)O)cc2)NC(=O)[C@H](CCCCNC(=N)N)NC(=O)CSC[C@@H](C(=O)NCC(=O)N[C@@H](CCCN)C(=O)NCCCCCCCCCCCC(=O)O)NC(=O)[C@H](CO)NC(=O)[C@H](C(C)C)NC(=O)[C@H](CC2CCCCC2)NC(=O)[C@H](CCN)NC(=O)[C@@H](CC(C)C)NC(=O)[C@H](C)N(C)C(=O)[C@H](C(C)C)NC(=O)[C@H](Cc2ccc(-c3ccccc3)cc2)NC1=O [Example 2121] ({CH2CO}-[hArg]Y(Carboxymethyl)DWL[Bip]V[NMeA][dL][Dab][Cha]VSCG[Orn][12Ado]-OH; thioether N-14) | 19.4 nM
Cc1cccc(C[C@@H]2NC(=O)[C@H](CC(=O)O)NC(=O)[C@H](Cc3ccc(OCC(=O)O)cc3)NC(=O)[C@H](CCCCNC(=N)N)NC(=O)CSC[C@@H](C(=O)N[C@@H](CO)C(=O)NCCOCCOCC(=O)N[C@@H](CCCN)C(=O)NCCCCCCCCCCCC(=O)O)NC(=O)[C@H](CO)NC(=O)[C@H](C(C)C)NC(=O)[C@H](CC3CCCCC3)NC(=O)[C@H](CCN)NC(=O)[C@@H](CC(C)C)NC(=O)[C@H](C)N(C)C(=O)[C@H](C(C)C)NC(=O)[C@H](Cc3ccc(-c4ccccc4)cc3)NC(=O)[C@H](CC(C)C)NC2=O)c1 [Example 2122] ({CH2CO}-[hArg]Y(Carboxymethyl)D[Phe(3-Me)]L[Bip]V[NMeA][dL][Dab][Cha]VSCS[AEEA][Orn][12Ado]-OH; thioether N-14) | 16 nM
